# Results: US20180243298A1, “TRPV3 MODULATORS” (AbbVie Inc., priority 2015, published 2018)
# Read-outs that look alike come from different tables or passages of the source.
# Key:
# TRPV3 = TRPV3 activation, relatively weak and nonspecific across TRPs; cited from earlier work
# human TRPV3 = target: T1, human TRPV3 (Homo sapiens, UniProt Q8NET8); test: Calcium flux assay (FLIPR TETRA), recombinant HEK293 cells expressing TRPV3, 2-APB response; assay type: cell-based; conditions: 2-APB at its EC80
# T1 construct: expressed in transfected cells; host or cells: HEK293
# T1 sequence (Q8NET8 1-790): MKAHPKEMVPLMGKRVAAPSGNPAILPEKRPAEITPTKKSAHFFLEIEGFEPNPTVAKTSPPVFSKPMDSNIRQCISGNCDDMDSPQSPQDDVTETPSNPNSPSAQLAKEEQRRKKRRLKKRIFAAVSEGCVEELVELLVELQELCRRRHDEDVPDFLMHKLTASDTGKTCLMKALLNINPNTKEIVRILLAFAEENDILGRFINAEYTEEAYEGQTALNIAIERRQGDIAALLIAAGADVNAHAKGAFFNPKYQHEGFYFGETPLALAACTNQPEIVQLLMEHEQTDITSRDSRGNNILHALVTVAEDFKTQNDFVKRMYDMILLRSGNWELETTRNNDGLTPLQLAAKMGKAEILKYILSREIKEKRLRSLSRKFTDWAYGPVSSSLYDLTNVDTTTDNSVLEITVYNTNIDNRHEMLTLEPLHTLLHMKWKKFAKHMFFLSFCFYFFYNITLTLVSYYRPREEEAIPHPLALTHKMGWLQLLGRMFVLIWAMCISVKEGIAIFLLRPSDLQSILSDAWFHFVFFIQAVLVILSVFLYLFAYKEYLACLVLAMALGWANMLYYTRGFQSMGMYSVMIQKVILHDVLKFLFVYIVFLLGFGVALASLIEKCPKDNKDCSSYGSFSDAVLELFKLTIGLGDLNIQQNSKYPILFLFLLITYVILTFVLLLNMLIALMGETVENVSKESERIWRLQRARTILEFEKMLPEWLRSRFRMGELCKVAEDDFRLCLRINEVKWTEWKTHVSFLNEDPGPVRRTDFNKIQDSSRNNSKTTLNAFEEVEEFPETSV
# In short: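 Response is the peak fluorescence increase over baseline, as a percentage of the compound-free response to 2-APB at EC80. Calcium flux recorded on FLIPR TETRA in stable human or mouse TRPV3 HEK293 cells after 90–120 min Calcium-4 dye loading.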
# FITC-challenged mice = test: Contact hypersensitivity (CHS) to FITC, ear swelling in mice; assay type: in vivo, mice (BALB/c); conditions: reduction in ear skin thickness vs vehicle, 24 hours after FITC challenge
# Procedure: (ii) In vivo Data The following protocol was used to evaluate the efficacy of a compound against contact hypersensitivity:
# Young adult female BALB/c mice (18±2 g body weight at 6-8 weeks old) Charles River Laboratories) were maintained under pathogen-free conditions and housed in an animal room maintained t at temperature of 21±1° C. and a humidity of 43±5%. Induction of contact hypersensitivity (CHS) and ear thickness measurements for all animals were carried out under light anesthesia (3-5% isoflurane/oxygen) for 1-2 minutes.
# Contact hypersensitivity consists of the afferent or initiation sensitizing phase, and the efferent or elicitation phase. The latter phase occurs when epidermal cells encounter a particular antigen to which the epidermal cells have previously been exposed, and is characterized in rodents by localized swelling in the skin.
# Fluorescein isothiocyanate (FITC) was purchased from Sigma-Aldrich and dissolved in 1:1 in acetone/dibutylphthalate prior to epicutaneous application. Mice were sensitized by painting epicutaneously 40 uL of 0.5% FITC on the abdomen ventral skin shaved one day prior to sensitization. Six days later, mice were challenged by painting epicutaneously 20 uL total volume of 0.5% FITC on the right ear (10 uL on either side). Control mice were treated with vehicle only. Ear swelling was measured 24 hours after challenge. Treatment groups were dosed orally at a dose volume of 10 mL/kg with compounds either BID (1 hour prior to FITC challenge, 8 hours after first dose and 2 hours prior to ear swelling measurement at 24 hours post FITC challenge) or QD (1 hour prior to FITC challenge and 2 hours prior to ear swelling measurement at 24 hours post FITC challenge). Inflammation was determined by the degree of ear swelling of the hapten exposed ear compared with the untreated ear with a Quick Mini thickness-gauge caliber (Mitutoyo, Japan). The change in ear thickness after allergen treatment can be used to calculate the percent suppression of contact hypersensitivity.
# The level of compound-mediated suppression of ear skin thickness in FITC-challenged mice is indicated in Table 2 wherein “A” refers to a reduction in ear skin thickness of >50%, “B” refers to a reduction in ear skin thickness of 30-50% and “C” refers to a reduction in ear skin thickness of <30% relative to vehicle-treated animals.
# [1] = Mus musculus, 30 mg/kg bid po, read-out: FITC % effect
IC50 (human TRPV3),Compound,inhibition in vivo at 30 mg/kg (FITC-challenged mice; [1]),other results
,"c1ccc(B(OB(c2ccccc2)c2ccccc2)c2ccccc2)cc1 [DPBA, diphenylboronic anhydride]",,EC50 (TRPV3): ~40000 nM
< 50 nM,"COc1ncnc(OC)c1C(=O)Nc1nc(C(F)(F)F)c(-c2cccnc2C)s1 [Example 64, 4,6-dimethoxy-N-[5-(2-methylpyridin-3-yl)-4-(trifluoromethyl)-1,3-thiazol-2-yl]pyrimidine-5-carboxamide]",,"inhibition in vivo at 30 mg/kg (FITC-challenged mice; Mus musculus, 30 mg/kg qd po, read-out: FITC % effect): 30 to 50%"
50 to 100 nM,"COc1ncnc(OC)c1C(=O)Nc1nc(C(F)(F)F)c(-c2cncc(F)c2)s1 [Example 27, N-[5-(5-fluoropyridin-3-yl)-4-(trifluoromethyl)-1,3-thiazol-2-yl]-4,6-dimethoxypyrimidine-5-carboxamide]",< 30%,
< 50 nM,"COc1ncnc(OC)c1C(=O)Nc1nc(C(F)(F)F)c(-c2cccnc2C#N)s1 [Example 42, N-[5-(2-cyanopyridin-3-yl)-4-(trifluoromethyl)-1,3-thiazol-2-yl]-4,6-dimethoxypyrimidine-5-carboxamide]",< 30%,
,"NCCOB(c1ccccc1)c1ccccc1 [Example 2-APB, 2-aminoethoxydiphenylborate]",,EC50 (TRPV3): ~40000 nM
< 50 nM,"COc1ncnc(OC)c1C(=O)Nc1nc(C(F)(F)F)c(-c2cnc(C(F)(F)F)nc2)s1 [Example 202, 4,6-dimethoxy-N-{4-(trifluoromethyl)-5-[2-(trifluoromethyl)pyrimidin-5-yl]-1,3-thiazol-2-yl}pyrimidine-5-carboxamide]",< 30%,
< 50 nM,"COc1ncnc(OC)c1C(=O)Nc1nc(C(F)(F)F)c(CN2CCC(F)CC2)s1 [Example 53, N-{5-[(4-fluoropiperidin-1-yl)methyl]-4-(trifluoromethyl)-1,3-thiazol-2-yl}-4,6-dimethoxypyrimidine-5-carboxamide]",,"inhibition in vivo at 10 mg/kg (FITC-challenged mice; Mus musculus, 10 mg/kg bid po, read-out: FITC % effect): 30 to 50%"
< 50 nM,"COc1ncnc(OC)c1C(=O)Nc1nc(C(F)(F)F)c(-c2cc(C(F)(F)F)nn2C)s1 [Example 65, 4,6-dimethoxy-N-{5-[1-methyl-3-(trifluoromethyl)-1H-pyrazol-5-yl]-4-(trifluoromethyl)-1,3-thiazol-2-yl}pyrimidine-5-carboxamide]",< 30%,

Compound,IC50 (human TRPV3),inhibition in vivo at 30 mg/kg (FITC-challenged mice; [1]),other results
"N-[5-(4-cyanophenyl)-4-(trifluoromethyl)-1,3-thiazol-2-yl]-4,6-dimethoxypyrimidine-5-carboxamide [Example 41]",< 50 nM,,FITC % effect (FITC-challenged mice; 30 mg/kg bid po): C (a reduction in ear skin thickness of <30% relative to vehicle-treated animals)
